Measurements: patent US20250281479A1, “TREATMENT OF CAVERNOUS ANGIOMAS WITH A 4-SUBSTITUTED PIPERIDINE DERIVATIVE” (Neurelis, Inc., priority 2024, published 2025)

Key:
Format in all cases: in vitro ADME
CYP2D6 = CYP2D6 (Homo sapiens, UniProt P10635); assay: CYP isozyme mediating metabolism
Procedure: (§1) Exposure to NRL-2017 was similar or greater (up to 5-fold) than that to NRL-1049 in rats when dosed once a day (QD). In monkeys, exposure to NRL-2017 was also greater (up to 33-fold) than that to NRL-1049. When rats were dosed twice a day (BID) for 14 days, there was a decrease in formation of NRL-2017 with exposure to NRL-2017 lower than that of NRL-1049 (ratio as low as 0.06). […] NRL-1049 bound to human serum albumin and human alpha1-acid glycoprotein. […] There was also inhibition of P-glycoprotein (P-gp) (only CACO-2 cells), organic anion transporting polypeptides (OATP) OATP1B1, OATP1B3 and OAT3 (IC50, >100 μM), but no effect on P-gp (MDCK2 cells), breast cancer resistance protein (BCRP), bile salt export pump (BSEP), or MATE2-K. NRL-1049 is a substrate for P-gp, not BCRP. […] This conclusion will be revisited when human pharmacokinetic (PK) data becomes available.

[1] = tested on: human alpha1-acid glycoprotein; assay: binding to human alpha1-acid glycoprotein
Procedure: as §1

rat hepatocytes = assay: incubation with rat hepatocytes; settings: two metabolites formed, NRL-2017 and an N-oxide
Procedure: as §1

MATE2-K = MATE2-K (Homo sapiens, UniProt Q86VL8)
Procedure: as §1

human serum albumin = human serum albumin (Homo sapiens, UniProt P02768); assay: binding to human serum albumin
Procedure: as §1

BCRP = BCRP (Homo sapiens, UniProt Q9UNQ0); assay: transporter substrate assessment
Procedure: as §1

P-gp = P-gp (Homo sapiens, UniProt P08183); assay: transporter substrate assessment
Procedure: as §1

[2] = target: T1, P-glycoprotein (P-gp) (only CACO-2 cells) (Homo sapiens, UniProt P08183); assay: transporter inhibition
T1 construct: endogenous in cells; host or cells: CACO-2 cells
Procedure: as §1

P-gp (MDCK2 cells) = target: T2, P-gp (MDCK2 cells) (Homo sapiens, UniProt P08183); assay: transporter inhibition
T2 construct: host or cells: MDCK2 cells
Procedure: as §1

[3] = target: breast cancer resistance protein (BCRP) (Homo sapiens, UniProt Q9UNQ0); assay: transporter inhibition
Procedure: as §1

BCRP, sequence (Q9UNQ0 whole entry): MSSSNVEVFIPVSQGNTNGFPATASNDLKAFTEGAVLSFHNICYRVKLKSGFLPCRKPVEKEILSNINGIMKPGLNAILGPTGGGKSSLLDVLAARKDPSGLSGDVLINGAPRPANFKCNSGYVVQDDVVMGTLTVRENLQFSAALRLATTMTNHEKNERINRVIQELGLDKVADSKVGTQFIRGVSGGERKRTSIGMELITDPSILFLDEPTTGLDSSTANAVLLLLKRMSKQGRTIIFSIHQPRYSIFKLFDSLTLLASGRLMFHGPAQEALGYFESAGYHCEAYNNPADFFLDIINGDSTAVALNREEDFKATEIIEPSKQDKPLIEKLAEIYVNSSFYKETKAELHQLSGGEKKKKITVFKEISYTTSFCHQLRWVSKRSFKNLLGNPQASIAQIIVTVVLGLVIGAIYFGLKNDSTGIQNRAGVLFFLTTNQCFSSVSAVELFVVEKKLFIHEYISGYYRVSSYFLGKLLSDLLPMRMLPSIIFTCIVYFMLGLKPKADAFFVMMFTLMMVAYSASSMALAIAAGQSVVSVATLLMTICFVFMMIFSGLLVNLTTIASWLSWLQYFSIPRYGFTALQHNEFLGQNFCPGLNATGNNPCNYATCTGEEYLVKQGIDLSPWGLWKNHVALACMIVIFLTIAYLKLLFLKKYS
breast cancer resistance protein (BCRP), sequence (Q9UNQ0 whole entry): as above
human serum albumin, sequence (P02768 25-609): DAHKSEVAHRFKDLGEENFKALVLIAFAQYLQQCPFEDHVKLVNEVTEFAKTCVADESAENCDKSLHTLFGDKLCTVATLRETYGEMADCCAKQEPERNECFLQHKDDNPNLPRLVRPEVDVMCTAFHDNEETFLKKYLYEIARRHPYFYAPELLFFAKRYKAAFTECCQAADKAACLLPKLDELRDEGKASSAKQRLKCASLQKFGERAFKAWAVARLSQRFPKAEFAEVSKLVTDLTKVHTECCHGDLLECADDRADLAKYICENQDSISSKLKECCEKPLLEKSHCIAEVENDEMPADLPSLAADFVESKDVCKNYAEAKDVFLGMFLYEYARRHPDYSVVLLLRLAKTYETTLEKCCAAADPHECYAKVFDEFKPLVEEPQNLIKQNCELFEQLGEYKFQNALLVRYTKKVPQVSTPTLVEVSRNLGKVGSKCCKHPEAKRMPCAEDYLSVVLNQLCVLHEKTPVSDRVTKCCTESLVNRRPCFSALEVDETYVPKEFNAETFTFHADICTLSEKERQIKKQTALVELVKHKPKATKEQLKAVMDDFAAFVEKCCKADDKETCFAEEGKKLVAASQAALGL
MATE2-K, sequence (Q86VL8 1-566 isoform Q86VL8-3): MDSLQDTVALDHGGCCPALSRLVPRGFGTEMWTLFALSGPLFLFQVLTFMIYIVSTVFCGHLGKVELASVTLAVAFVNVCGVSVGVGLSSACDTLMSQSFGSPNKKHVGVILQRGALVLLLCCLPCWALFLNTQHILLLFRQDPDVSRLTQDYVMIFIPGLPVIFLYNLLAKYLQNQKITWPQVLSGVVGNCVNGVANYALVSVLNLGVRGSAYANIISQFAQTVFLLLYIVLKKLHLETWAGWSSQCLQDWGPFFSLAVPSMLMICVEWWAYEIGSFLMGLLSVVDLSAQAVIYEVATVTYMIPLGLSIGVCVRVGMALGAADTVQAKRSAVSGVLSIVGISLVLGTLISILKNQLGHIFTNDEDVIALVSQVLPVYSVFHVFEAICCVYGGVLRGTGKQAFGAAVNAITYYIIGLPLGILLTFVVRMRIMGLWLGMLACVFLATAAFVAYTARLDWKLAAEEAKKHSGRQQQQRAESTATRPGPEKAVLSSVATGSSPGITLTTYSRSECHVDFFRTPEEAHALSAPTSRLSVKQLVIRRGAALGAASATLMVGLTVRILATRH
P-gp, sequence (P08183 whole entry): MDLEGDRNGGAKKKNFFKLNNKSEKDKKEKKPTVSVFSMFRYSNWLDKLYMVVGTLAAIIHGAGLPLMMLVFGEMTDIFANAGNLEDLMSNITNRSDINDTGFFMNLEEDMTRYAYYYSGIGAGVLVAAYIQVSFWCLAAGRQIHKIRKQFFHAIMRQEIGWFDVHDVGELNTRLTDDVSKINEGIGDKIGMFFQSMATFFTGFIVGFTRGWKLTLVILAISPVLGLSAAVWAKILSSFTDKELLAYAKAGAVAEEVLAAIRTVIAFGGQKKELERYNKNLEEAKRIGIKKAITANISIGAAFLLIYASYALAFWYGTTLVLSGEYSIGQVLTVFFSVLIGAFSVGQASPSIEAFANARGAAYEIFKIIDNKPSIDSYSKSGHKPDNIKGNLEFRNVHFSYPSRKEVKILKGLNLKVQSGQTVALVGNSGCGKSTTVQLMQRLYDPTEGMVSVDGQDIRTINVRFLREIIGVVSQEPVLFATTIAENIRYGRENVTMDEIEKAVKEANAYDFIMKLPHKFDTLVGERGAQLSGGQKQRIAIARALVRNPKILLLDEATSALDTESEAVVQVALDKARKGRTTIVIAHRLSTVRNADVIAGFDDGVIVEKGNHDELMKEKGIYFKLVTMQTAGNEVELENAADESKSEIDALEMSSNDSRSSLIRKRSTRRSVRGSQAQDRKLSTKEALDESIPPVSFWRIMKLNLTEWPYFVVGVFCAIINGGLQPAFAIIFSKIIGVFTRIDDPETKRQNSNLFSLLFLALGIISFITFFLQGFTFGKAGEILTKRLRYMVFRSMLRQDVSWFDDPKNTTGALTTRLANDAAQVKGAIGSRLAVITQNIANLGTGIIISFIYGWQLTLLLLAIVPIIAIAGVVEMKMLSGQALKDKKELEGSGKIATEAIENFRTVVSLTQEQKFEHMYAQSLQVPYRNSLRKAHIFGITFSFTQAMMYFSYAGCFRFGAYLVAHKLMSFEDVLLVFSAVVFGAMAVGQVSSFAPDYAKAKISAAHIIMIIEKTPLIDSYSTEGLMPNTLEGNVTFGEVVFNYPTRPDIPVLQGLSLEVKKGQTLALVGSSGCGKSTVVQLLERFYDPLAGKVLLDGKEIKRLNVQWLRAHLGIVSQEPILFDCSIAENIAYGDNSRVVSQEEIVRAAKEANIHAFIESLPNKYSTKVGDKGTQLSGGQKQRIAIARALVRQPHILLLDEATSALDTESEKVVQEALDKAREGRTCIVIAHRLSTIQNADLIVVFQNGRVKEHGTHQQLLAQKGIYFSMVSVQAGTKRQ
T2 sequence (P08183 whole entry): as above
CYP2D6, sequence (P10635 whole entry): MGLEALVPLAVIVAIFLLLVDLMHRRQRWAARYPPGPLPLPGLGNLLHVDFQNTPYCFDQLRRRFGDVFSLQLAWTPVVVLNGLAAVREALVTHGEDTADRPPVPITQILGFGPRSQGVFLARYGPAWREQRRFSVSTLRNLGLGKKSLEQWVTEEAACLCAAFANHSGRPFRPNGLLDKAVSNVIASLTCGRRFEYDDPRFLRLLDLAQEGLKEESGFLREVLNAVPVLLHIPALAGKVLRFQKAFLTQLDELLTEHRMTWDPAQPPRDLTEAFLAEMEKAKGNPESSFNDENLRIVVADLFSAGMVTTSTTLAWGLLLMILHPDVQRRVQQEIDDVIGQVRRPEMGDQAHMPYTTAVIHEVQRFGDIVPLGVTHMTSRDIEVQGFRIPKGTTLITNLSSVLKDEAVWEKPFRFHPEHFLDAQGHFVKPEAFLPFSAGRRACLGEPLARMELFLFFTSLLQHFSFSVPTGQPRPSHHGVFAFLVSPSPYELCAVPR

C[C@@H](N)C1CCN(S(=O)(=O)c2cccc3cnccc23)CC1 [NRL-1049]
metabolism by CYP2D6 (CYP2D6): primarily mediated | binding to human alpha1-acid glycoprotein [1]: bound | clearance rate in hepatocytes (rat hepatocytes): moderate | effect on transporter (MATE2-K): no effect | binding to human serum albumin (human serum albumin): bound | substrate for BCRP (BCRP): not BCRP | substrate for P-gp (P-gp): substrate | IC50 [2]: > 100 µM | effect on transporter (P-gp (MDCK2 cells)): no effect | effect on transporter [3]: no effect
